Patent EP0381422B1, “Tetrahydrobenzimidazole derivatives” (YAMANOUCHI PHARMACEUTICAL CO. LTD., priority 1989, dated 1990)

System: 5-HT3 receptor
Assay: Antagonism against 5-HT3-receptor: inhibition of serotonin-induced Bezold-Jarish (BJ) reflex in anesthetized rats
Assay type: in vivo, Wistar male rats
Procedure: Antagonism Against 5-HT3-Receptor
Nine-week-old Wistar male rats were anesthetized by intravenous injection of 1 g/kg of urethane, and blood pressure and heart rate were measured under artificial respiration. Transient reduction in heart rate and blood pressure induced by intravenous administration of serotonin or 2-methylserotonin which is a selective agonist of 5-HT3 was taken as an index of the reaction via 5-HT3 receptor [Bezold-Jarish reflex; Paintal, A.S., Pysiolo. Rev., Vol. 53, p.
Inhibitory activity of compounds of the present invention on serotonin-induced Bezold-Jarish (BJ) reflex in rats is shown in Table 1.

| Compound | BJ Reflex Inhibitory Activity (ED50; µg/kg, i.v.) [µg/kg] |
| --- | --- |
| O=C(C1CCc2nc[nH]c2C1)n1c(=O)[nH]c2ccccc21 (centres unmarked) [Example 9, 1-[(4,5,6,7-tetrahydrobenzimidazol-5-yl)carbonyl]-2,3-dihydrobenzimidazol-2-one] | 0.80 |
| O=C(C1CCc2nc[nH]c2C1)N1CCc2ccccc21.O=C(O)/C=C/C(=O)O (centres unmarked) [Example 2, 5-[(2,3-Dihydroindol-1-yl)carbonyl]-4,5,6,7-tetrahydrobenzimidazole fumarate] | 0.29 |
